Literature values in patent publication USRE43580E1, “Nasal calcitonin formulations” (Unigene Laboratories, Inc., priority 2000, dated 2012).

Experiments:
[1] = test system: mucocilary transport velocity; conditions: ex vivo frog palate
[2] = preservative in the nasal formulation
[3] = test system: respiratory mucosal tissue; conditions: exposed in vitro
rhinitis medicamentosa = conditions: healthy volunteers, decongestant nasal spray containing the preservative
nasal mucosa = conditions: in vivo

benzalkonium chloride
Mucocilary transport velocity [1]: significant slowing | Absorption of salmon calcitonin [2]: enhance the absorption of salmon calcitonin | Morphology of respiratory mucosal tissue [3]: severe morphological alterations | Rhinitis medicamentosa (rhinitis medicamentosa): aggravate rhintis rhinitis medicamentosa | Effect on nasal mucosa (nasal mucosa): adverse effect on nasal mucosa
